Source: PMC5320518, “Novel Liver-targeted conjugates of Glycogen Phosphorylase Inhibitor PSN-357 for the Treatment of Diabetes: Design, Synthesis, Pharmacokinetic and Pharmacological Evaluations” (Scientific Reports, 2017)

Tests used:
[1] = Stability in mouse liver microsomes (MLM); type: in vitro ADME; conditions: for CLint scaled at 10 μM / half-life at 10 μM / microsomal CLint at 10 μM: C57BL/6, pH 7.4, n = 3
Protocol: Additionally, the compounds’ stability in microsome were evaluated by measuring the rate of compounds consumpation in MLM and the results are shown in Table 3.
The microsomal pellet was suspended in potassium phosphate buffer (100 mM, pH 7.4), 10 μM test compound or positive control (diclofenac) was added. Liver microsomes from C57BL/6 mice (BD Gentest) were pooled. The mixture of microsome solution and compound was incubated at 37 °C for about 10 min in the presence of a NADPH-regenerating system, consisting of 0.02 M DL-isocitric acid (trisodium salt), 0.1 mg/mL isocitrate dehydrogenase and 1 mM NADPH. The addition of ice-cold CH3CN (including 100 ng/mL tolbutamide as internal standard) terminated the reaction. The mixture was vortexed for approx (30 s), centrifuged (20 min, 4000 rpm) and the supernatant was collected and analysed by LC-MS/MS method.

[2] = tested on: leptin-deficient ob/ob mice; assay: Glucose lowering in vivo in diabetic ob/ob mice; conditions: 50 mg/kg p.o.; for hypoglycemic effect (in words): 0-24 h
Protocol: In vivo efficacy of compound PSN-357 and conjugate 6 were studied on leptin-deficient ob/ob mice. Metformin was chosen as a positive control. […] Especially, there was still significant decrease in BG levels by conjugate 6 up to 6 h after administration. The effect might be due to the fact that 6 acts in a sustained release and longer acting manners. It is noteworthy that the findings are highly consistent with the results from in vivo pharmacokinetic studies.
Five- to six-week old obese, diabetic ob/ob mice (male C57BL/6 J) and their lean, nondiabetic male C57BL/6 J littermates were provided by the Model Animal Research Center of Nanjing University, and housed under standard animal care practices with ad libitum access to food and water throughout the procedures. After 1 week acclimation, blood was collected from the retroorbital sinus for plasma glucose determination, and mice were randomized to groups with similar mean ± SD. Mice were then dosed p.o. daily for 4 days with vehicle consisting of DMSO/PEG400/H-β-CD (1:3:6, v/v/v). On day 5, mice were treated p.o. with PSN-357 (50 mg/kg) or conjugate 6 (50 mg/kg) or vehicle, then bled at 0, 1, 2, 3, 6 and 24 h post-dose for plasma glucose determination. Statistical analysis of the hypoglycemic effect was determined by unpaired t test with the ob/ob mice vehicle treated group.

[3] = Stability in mouse plasma; type: in vitro ADME; conditions: 2 μM, 37 °C, 120-min test
Protocol: Frozen plasma from male C57 BL/6 mice was incubated for 5 min at 37 °C before the addition of the test compound. Then prepared 2 μM incubation sample, and aliquots of the incubation mixtures (100 μL) were taken at predetermined time points (10, 30, 60, 120 min) at 37 °C. After incubation, the mixtures was added 400 μL of 50% ACN/50% MeOH containing internal standard (IS, 200 ng/mL Tolbutamide and 20 ng/mL Buspirone) to each sample tube and then centrifuged at 13000 rpm for 8 min. Blank incubations in the absence of the test compound were also performed. The analyses of test compounds were performed by LC-MS/MS analysis.

[4] = target: T1, rabbit muscle GPa (RMGPa) (Oryctolagus cuniculus, UniProt P00489); assay: RMGPa inhibition assay (phosphate release from glucose-1-phosphate); type: biochemical; conditions: mean ± S.D. of three determinations; NI means no inhibition
T1 sequence (P00489 2-843 limits assumed): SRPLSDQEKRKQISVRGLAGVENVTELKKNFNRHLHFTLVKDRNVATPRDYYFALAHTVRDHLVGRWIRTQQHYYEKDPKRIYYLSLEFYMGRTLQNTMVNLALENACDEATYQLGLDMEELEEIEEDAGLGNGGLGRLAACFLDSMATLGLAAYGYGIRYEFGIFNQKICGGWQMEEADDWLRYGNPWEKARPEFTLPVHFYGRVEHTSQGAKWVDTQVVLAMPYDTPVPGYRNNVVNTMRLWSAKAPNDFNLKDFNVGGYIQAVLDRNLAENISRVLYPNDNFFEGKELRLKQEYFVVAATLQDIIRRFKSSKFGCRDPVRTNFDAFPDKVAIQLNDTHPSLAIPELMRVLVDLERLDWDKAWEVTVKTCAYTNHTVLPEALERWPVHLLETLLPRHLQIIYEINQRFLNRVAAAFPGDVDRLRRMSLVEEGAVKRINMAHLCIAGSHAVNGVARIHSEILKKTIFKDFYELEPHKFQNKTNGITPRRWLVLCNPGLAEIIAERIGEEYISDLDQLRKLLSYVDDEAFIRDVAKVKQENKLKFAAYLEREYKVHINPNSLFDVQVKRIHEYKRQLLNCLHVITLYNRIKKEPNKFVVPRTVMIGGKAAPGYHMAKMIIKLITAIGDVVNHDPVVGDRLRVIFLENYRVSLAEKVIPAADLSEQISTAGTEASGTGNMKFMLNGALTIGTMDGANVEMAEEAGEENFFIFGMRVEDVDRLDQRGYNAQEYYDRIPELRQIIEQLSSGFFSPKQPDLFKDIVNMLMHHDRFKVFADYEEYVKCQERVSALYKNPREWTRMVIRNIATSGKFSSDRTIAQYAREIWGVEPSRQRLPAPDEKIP
Protocol: All the compounds were evaluated for their inhibitory activity against rabbit muscle GPa (RMGPa). The activity of RMGPa was measured through detecting the release of phosphate from glucose-1-phosphate in the direction of glycogen synthesis. CP-91149, a well-known allosteric GP inhibitor, which shares the same binding site with PSN-357, was used as the positive control and the results are summarized in Table 1[21]. […] This remarkable loss of activity was probably due to the direct steric interference by such bulky substituent of cholic acid group. […] The results is consistent with the SARs of PSN-357 that the hydroxyl of piperidine is not an essential group for the GP inhibitory activity that could be modified slightly.
The inhibitory activity of the test compounds against rabbit muscle glycogen phosphorylase a (GPa) was monitored using microplate reader (BIO-RAD) based on the published method. In brief, GPa activity was measured in the direction of glycogen synthesis by the release of phosphate from glucose-1-phosphate. Each test compound was dissolved in DMSO and diluted at different concentrations for IC50 determination. The enzyme was added into 100 μL of buffer containing 50 mM Hepes (pH = 7.2), 100 mM KCl, 2.5 mM MgCl2, 0.5 mM glucose-1-phosphate, 1 mg/mL glycogen and the test compound in 96-well microplates (Costar). After the addition of 150 μL of 1 M HCl containing 10 mg/mL ammonium molybdate and 0.38 mg/mL malachite green, reactions were run at 22 °C for 25 min, and then the phosphate absorbance was measured at 655 nm. The IC50 values were estimated by fitting the inhibition data to a dose-dependent curve using a logistic derivative equation.

Question: For `C[C@H](CCC(=O)N[C@@H](CC(=O)O)C(=O)OC1CCN(C(=O)[C@H](Cc2ccc(F)cc2)NC(=O)c2cc3cc(Cl)ncc3[nH]2)CC1)[C@H]1CC[C@H]2[C@@H]3[C@H](O)C[C@@H]4C[C@H](O)CC[C@]4(C)[C@H]3C[C@H](O)[C@]12C` [Conjugate 6], which “metabolic stability in MLM (in words)” value [1] is on record?
Answer: The value was “considerable metabolic stability”.

Question: And the CLint scaled at 10 μM [1]?
Answer: Its CLint scaled at 10 μM is 64.9 mL/min/kg.

Question: And the half-life at 10 μM [1]?
Answer: The half-life at 10 μM was 1.41 h.

Question: And the microsomal CLint at 10 μM [1]?
Answer: Its microsomal CLint at 10 μM is 16.4 µL/min/mg.

Question: What about the “hypoglycemic effect (in words)” value ([2]; n = 10, 50 mg/kg) of the same molecule?
Answer: Its value is “small but significant hypoglycemic effects”.

Question: What about the “BG level at largest drop” value ([2]; at 3 h, p < 0.005) of the same molecule?
Answer: Its value is “around 7.79 mmol/L”.

Question: What about the “degradation in mouse plasma” value [3] of the same molecule?
Answer: Its value is roughly 12%.

Question: What about the IC50 [4] of the same molecule?
Answer: Its IC50 is 31.2 ± 11.1 µM.

Question: With `O=C(N[C@@H](Cc1ccc(F)cc1)C(=O)N1CCC(O)CC1)c1cc2cc(Cl)ncc2[nH]1` [PSN-357] as the molecule, how does the “metabolic stability in MLM (in words)” value [1] read?
Answer: Its value is “good metabolic stability”.

Question: What about the CLint scaled at 10 μM [1] of the same molecule?
Answer: The CLint scaled at 10 μM was less than 38 mL/min/kg.

Question: What about the half-life at 10 μM [1] of the same molecule?
Answer: The half-life at 10 μM was greater than 2.42 h.

Question: What about the microsomal CLint at 10 μM [1] of the same molecule?
Answer: The microsomal CLint at 10 μM was less than 9.6 µL/min/mg.

Question: And the “hypoglycemic effect (in words)” value ([2]; n = 10)?
Answer: Its value is “significantly reduc the blood glucose”.

Question: What about the blood glucose (BG) nadir ([2]; at 1 h, p < 0.005 vs control ob/ob mice) of the same molecule?
Answer: The blood glucose (BG) nadir was 6.36 ± 1.46 mM.

Question: And the “stability in mouse plasma (in words)” value [3]?
Answer: Its value is “relatively stable”.

Question: What about the IC50 [4] of the same molecule?
Answer: The IC50 was 0.42 ± 0.01 µM.
